{
  "source": "patent EP1072247A2",
  "about": "“Cosmetic and dermatological compositions based on o/w emulsions” (Beiersdorf Aktiengesellschaft, priority 1999, dated 2001)",
  "experiment": "Interfacial tension of lipids against water (measure of polarity)",
  "assay_type": "physicochemical",
  "conditions": "lipids below 30 mN/m are regarded as polar",
  "excerpt": "Öle und Fette unterscheiden sich unter anderem in ihrer Polarität, welche schwierig zu definieren ist. Es wurde bereits vorgeschlagen, die Grenzflächenspannung gegenüber Wasser als Maß für den Polaritätsindex eines Öls bzw. einer Ölphase anzunehmen. Dabei gilt, daß die Polarität der betreffenden Ölphase um so größer ist, je niedriger die Grenzflächenspannung zwischen dieser Ölphase und Wasser ist. Erfindungsgemäß wird die Grenzflächenspannung als ein mögliches Maß für die Polarität einer gegebenen Ölkomponente angesehen.\nDie Grenzflächenspannung ist diejenige Kraft, die an einer gedachten, in der Grenzfläche zwischen zwei Phasen befindlichen Linie der Länge von einem Meter wirkt. Die physikalische Einheit für diese Grenzflächenspannung errechnet sich klassisch nach der Beziehung Kraft/Länge und wird gewöhnlich in mN/m (Millinewton geteilt durch Meter) wiedergegeben. Sie hat positives Vorzeichen, wenn sie das Bestreben hat, die Grenzfläche zu verkleinern. Im umgekehrten Falle hat sie negatives Vorzeichen. Als polar im Sinne der vorliegenden Erfindung werden Lipide angesehen, deren Grenzflächenspannung gegen Wasser weniger als 30 mN/m beträgt.\nUnpolare Öle sind beispielsweise solche, welche gewählt werden aus der Gruppe der verzweigten und unverzweigten Kohlenwasserstoffe und -wachse, insbesondere Vaseline (Petrolatum), Paraffinöl, Squalan und Squalen, Polyolefine und hydrogenierte Polyisobutene. […] Tabelle 1",
  "data": [
    {"compound": "Octyl Palmitate [Cegesoft® C24]", "values": [
      {"measurement": "Grenzflächenspannungen gegen Wasser", "result": "23,1 mN/m"}
    ]},
    {"compound": "CCCCCCCCCCCCCCCCCCOC(=O)CCCCCC", "note": "[Tegosoft® SH, Stearyl Heptanoate]", "values": [
      {"measurement": "Grenzflächenspannungen gegen Wasser", "result": "28,7 mN/m"}
    ]},
    {"compound": "CCCCCCCCOC(=O)CCCCCCCCCCCCCCC(C)C", "note": "[Prisorine® 2036, Octyl Isostearate]", "values": [
      {"measurement": "Grenzflächenspannungen gegen Wasser", "result": "29,7 mN/m"}
    ]},
    {"compound": "CCCCCCCC(=O)OCC(COC(=O)CCCCCCC)OC(=O)CCCCCCC", "note": "[Trivent® OCG, Tricaprylin]", "values": [
      {"measurement": "Grenzflächenspannungen gegen Wasser", "result": "20,2 mN/m"}
    ]},
    {"compound": "Octyl Stearate [Cetiol® 868]", "values": [
      {"measurement": "Grenzflächenspannungen gegen Wasser", "result": "28,4 mN/m"}
    ]},
    {"compound": "CCCCCCCCOCCCCCCCC", "note": "[Cetiol® OE, Dicaprylyl Ether]", "values": [
      {"measurement": "Grenzflächenspannungen gegen Wasser", "result": "22,1 mN/m"}
    ]},
    {"compound": "CCCCCCCCCCCCCCCCCC(=O)OC(C)C", "note": "[Isopropylstearat, Isopropyl Stearate]", "values": [
      {"measurement": "Grenzflächenspannungen gegen Wasser", "result": "21,9 mN/m"}
    ]}
  ]
}
